Test results from ChEMBL document CHEMBL1201862, “PubChem BioAssay data set” (2004).
Active and inactive are the calls of the source.

What was measured:
[1] = target: Benomyl/methotrexate resistance protein (Candida albicans, UniProt P28873); experiment: Candida albicans Mdr1 pump inhibition curves – singleplex, Cherry Pick1 hits, dose response (AID 588608); type: functional
[2] = target: Ras and Rab interactor 1/Tyrosine-protein kinase ABL1 (Homo sapiens, UniProt P00519+Q13671); type: functional;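 further: biochemical TR-FRET dose-response test measuring inhibition of binding between Rin1 and Abl proteins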
CHO-K1 = experiment: (§1) Counterscreen for antagonists of the orexin 1 receptor (OX1R; HCRTR1): Homogeneous time resolved fluorescence (HTRF)-based cell-based dose response assay to identify antagonists of the parental CHO-K1 cell line. [Related pubchem assays (depositor defined):AID434989, AID435008, AID463079, AID485270, AID492963, AID492964, AID492965, AID493232, AID504699, AID504701]; type: functional; settings: Cricetulus griseus
Orexin receptor type 2 [3] = target: T1, Orexin receptor type 2 (Homo sapiens, UniProt O43614); experiment: Counterscreen assay for antagonists of the orexin 1 receptor (OX1R; HCRTR1): Fluorescence-based cell-based dose response assay for antagonists of the orexin 2 receptor (OX2R; HCRTR2), run by assay provider.; type: functional
T1 sequence (O43614 whole entry): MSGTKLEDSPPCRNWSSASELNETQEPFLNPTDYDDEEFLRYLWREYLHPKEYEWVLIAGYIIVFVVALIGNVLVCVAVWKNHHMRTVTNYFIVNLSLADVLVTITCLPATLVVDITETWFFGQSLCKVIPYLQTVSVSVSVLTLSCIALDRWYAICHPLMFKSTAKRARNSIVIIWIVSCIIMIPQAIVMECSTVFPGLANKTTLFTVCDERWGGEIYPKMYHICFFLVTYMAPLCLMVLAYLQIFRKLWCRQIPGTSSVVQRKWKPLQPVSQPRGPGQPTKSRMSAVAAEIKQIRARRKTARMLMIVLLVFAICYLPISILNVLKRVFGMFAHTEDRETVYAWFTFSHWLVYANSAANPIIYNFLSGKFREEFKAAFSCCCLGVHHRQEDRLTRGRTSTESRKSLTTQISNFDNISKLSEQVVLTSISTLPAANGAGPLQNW

Orexin receptor type 2 [4] = target: T1, Orexin receptor type 2; experiment: Counterscreen assay for antagonists of the orexin 1 receptor (OX1R; HCRTR1): Homogeneous Time Resolved Fluorescence (HTRF)-based cell-based dose response assay for antagonists of the orexin 2 receptor (OX2R; HCRTR2), run by assay provider.; type: functional
[5] = target: T2, Orexin/Hypocretin receptor type 1 (Homo sapiens, UniProt O43613); experiment: (§2) Fluorescence-based cell-based high throughput dose response assay for antagonists of the orexin 1 receptor (OX1R; HCRTR1). [Related pubchem assays (depositor defined):AID434989, AID435008, AID463079, AID485270, AID492963, AID492964, AID492965, AID493232, AID504717, AID504718]; type: functional
T2 sequence (O43613 whole entry): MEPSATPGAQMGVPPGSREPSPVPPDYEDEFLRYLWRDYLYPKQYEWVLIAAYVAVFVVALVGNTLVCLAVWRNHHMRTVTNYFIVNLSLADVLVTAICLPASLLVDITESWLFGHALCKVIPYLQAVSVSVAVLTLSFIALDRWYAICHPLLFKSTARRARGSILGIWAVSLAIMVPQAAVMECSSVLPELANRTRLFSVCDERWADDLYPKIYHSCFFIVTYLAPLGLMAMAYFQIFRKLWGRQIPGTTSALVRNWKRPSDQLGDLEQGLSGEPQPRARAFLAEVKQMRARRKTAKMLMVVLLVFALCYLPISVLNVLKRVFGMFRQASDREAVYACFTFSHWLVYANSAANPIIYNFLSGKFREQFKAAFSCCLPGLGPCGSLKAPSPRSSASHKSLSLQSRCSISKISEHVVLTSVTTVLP

[6] = as §1, with “Fluorescence-based” for “Homogeneous time resolved fluorescence (HTRF)-based”, “cell-based high throughput” for “cell-based”, “CHO” for “CHO-K1”; type: functional
[7] = target: T2, Orexin/Hypocretin receptor type 1; experiment: as §2, with “Homogeneous Time Resolved Fluorescence (HTRF)-based” for “Fluorescence-based”; type: functional
[8] = target: Serine/threonine-protein phosphatase (Candida dubliniensis (strain CD36 / CBS 7987 / NCPF 3949 / NRRLY-17841) (Yeast), UniProt B9W6M3); experiment: blockers of CaCl2-induced CDRE-lacZ signaling – S. cerevisiae, luminescence, secondary, dose response (AID 2388); type: functional, cell-based;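 further: yeast reporter cells carrying a calcineurin-responsive lacZ construct stimulated with calcium chloride; luminescent beta-galactosidase reporter signal in whole cells rather than isolated phosphatase activity; potency for inhibition where a drop in reporter signal means calcineurin blockade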
Serine/threonine-protein phosphatase, sequence (B9W6M3 whole entry): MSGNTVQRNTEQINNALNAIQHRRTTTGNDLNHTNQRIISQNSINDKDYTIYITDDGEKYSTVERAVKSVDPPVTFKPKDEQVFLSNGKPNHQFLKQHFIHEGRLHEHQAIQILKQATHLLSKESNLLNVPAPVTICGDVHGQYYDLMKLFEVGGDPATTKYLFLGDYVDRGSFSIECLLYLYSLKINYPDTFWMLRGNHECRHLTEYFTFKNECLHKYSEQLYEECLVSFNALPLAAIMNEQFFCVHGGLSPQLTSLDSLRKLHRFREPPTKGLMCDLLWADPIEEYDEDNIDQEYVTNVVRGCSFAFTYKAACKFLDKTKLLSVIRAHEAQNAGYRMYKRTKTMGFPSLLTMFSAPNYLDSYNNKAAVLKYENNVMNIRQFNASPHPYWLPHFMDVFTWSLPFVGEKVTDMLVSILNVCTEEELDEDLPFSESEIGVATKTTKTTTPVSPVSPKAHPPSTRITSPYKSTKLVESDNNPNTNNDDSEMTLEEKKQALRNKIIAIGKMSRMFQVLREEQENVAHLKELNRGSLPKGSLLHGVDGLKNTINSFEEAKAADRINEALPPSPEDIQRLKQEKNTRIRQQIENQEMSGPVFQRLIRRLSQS

[9] = Luminescence Cell-Based Dose Response HTS to Identify Inhibitors of 5'UTR Stem-Loop Driven Prion Protein mRNA Translation in H4 Neuroglioblastoma Cells. [Related pubchem assays: 1827 (Project Summary), 1813 (Primary HTS)]; type: functional
[10] = NIH-3T3 fibroblast cytotoxicity, dose response, cytotoxicity control, cell-based, fluorescence, Alamar Blue, secondary assay (AID 2327); type: functional;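 further: NIH-3T3 mouse fibroblasts cultured with fluconazole at 8 µg/mL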
[11] = alpha-synuclein stem-loop luciferase translation blockers – H4 neuroglioma cells, luminescence, confirmation (AID 1988); type: functional, cell-based
[12] = NIH3T3 cell viability loss – ATP luminescence, mouse fibroblasts, counter-screen, dose response (AID 2010); type: functional, cell-based;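 further: cells exposed to compound for about 90 hours before reading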
[13] = luciferase reporter signal suppression in cells – H4 neuroglioma cells, luminescence, dose response (AID 1990); type: functional, cell-based
[14] = mammalian cell viability loss – Alamar Blue, dry powder, cytotoxicity control for antifungal single agent project, dose response (AID 602188); type: functional, cell-based
[15] = fluconazole-exposed Candida albicans growth modulators – fluorescence, retest, confirmation (AID 2467); type: functional, cell-based
[16] = target: ATP-dependent molecular chaperone HSP82 (Candida albicans (strain WO-1) (Yeast), UniProt C4YTQ8); experiment: steroid-induced GRE reporter decrease in yeast – S. cerevisiae, luminescence, Hsp90 inhibitor project, dose response (AID 2400); type: functional, cell-based;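 further: beta-galactosidase luminescence from glucocorticoid response element reporter as proxy for Hsp90 function; inhibitor potency where signal loss means Hsp90 inhibition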
ATP-dependent molecular chaperone HSP82, sequence (C4YTQ8 whole entry): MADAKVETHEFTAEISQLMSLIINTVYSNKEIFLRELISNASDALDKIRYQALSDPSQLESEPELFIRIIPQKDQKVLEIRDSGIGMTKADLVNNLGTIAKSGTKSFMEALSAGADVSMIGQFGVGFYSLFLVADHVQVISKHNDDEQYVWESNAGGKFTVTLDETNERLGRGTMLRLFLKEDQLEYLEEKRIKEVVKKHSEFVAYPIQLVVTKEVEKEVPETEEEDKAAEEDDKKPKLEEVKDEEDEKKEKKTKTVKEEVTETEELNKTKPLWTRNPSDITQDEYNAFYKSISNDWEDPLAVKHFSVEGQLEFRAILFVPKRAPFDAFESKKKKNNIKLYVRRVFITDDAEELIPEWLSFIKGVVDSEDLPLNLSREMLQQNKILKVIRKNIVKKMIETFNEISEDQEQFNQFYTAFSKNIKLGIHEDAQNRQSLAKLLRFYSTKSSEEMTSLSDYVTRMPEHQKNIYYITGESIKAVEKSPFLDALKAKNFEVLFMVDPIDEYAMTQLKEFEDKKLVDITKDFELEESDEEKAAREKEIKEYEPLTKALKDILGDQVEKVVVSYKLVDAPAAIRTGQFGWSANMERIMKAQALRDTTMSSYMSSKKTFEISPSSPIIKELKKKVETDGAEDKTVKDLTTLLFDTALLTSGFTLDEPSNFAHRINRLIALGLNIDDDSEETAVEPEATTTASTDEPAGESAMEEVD

[17] = system: Streptococcus sp. 'group A'; experiment: Streptococcus pyogenes SK(-)GAS viability under kanamycin – luminescence, BacTiterGlo, confirmation, counter-screen for streptokinase expression inhibitor project, dose response (AID 1900); type: functional, organism-based
Streptococcus = experiment: GAS UMAA2166 growth inhibition – luminescence, BacTiterGlo, counter-screen for streptokinase expression inhibitor project, dose response (AID 1915); type: functional, organism-based;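 further: potency for reduction of bacterial viability or growth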
INS1 = experiment: INS-1E survival protection against cytokine death – cell-based, luminescence, retest, dose response (AID 449756); type: functional; settings: Rattus norvegicus;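 further: cell death triggered by IL-1 beta plus TNF-alpha plus IFN-gamma mixture; protective hits raise ATP signal compared with cytokine alone wells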
[18] = Trypanosoma cruzi growth suppression in host cells – NIH3T3 host cells, beta-gal luminescence, confirmation (AID 2044); type: functional, cell-based;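 further: intracellular parasites grown in NIH/3T3 mouse fibroblasts as host cells; luminescent beta-galactosidase reporter signal from transgenic T. cruzi replicating inside host cells; inhibitors lower the luminescence signal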
[19] = target: Tyrosine-protein phosphatase non-receptor type 11 (Homo sapiens, UniProt Q06124); experiment: PTPN11 enzyme inhibitors – biochemical, selectivity assay for STEP inhibitor project, dose response (AID 602367); type: functional; settings: read-out: IC50_Mean
Tyrosine-protein phosphatase non-receptor type 11, sequence (Q06124 whole entry): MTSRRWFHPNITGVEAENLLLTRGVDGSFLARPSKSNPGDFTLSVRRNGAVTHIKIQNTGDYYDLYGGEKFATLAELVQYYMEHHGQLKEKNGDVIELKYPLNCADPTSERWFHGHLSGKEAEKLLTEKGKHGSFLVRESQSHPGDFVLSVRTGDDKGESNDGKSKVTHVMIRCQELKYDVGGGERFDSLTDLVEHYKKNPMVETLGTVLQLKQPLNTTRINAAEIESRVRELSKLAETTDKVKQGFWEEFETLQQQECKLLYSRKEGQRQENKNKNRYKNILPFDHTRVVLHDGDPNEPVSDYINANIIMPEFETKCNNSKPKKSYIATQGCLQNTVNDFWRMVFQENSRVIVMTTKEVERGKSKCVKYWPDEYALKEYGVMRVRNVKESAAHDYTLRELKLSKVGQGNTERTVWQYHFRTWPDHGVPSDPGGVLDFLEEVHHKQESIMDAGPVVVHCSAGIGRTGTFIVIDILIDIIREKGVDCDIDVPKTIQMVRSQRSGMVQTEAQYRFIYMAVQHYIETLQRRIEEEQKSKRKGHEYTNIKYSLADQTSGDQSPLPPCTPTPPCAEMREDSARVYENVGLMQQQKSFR

Streptokinase A = target: T3, Streptokinase A (Streptococcus pyogenes serotype M1, UniProt P10520); experiment: viability-normalized secreted streptokinase activity reduction – plasminogen activation absorbance, OD405, dose response (AID 1914); type: functional, Streptococcus pyogenes M1 GAS;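 further: secreted streptokinase activity via plasminogen activation per viability signal from cell pellet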
T3 sequence (P10520 whole entry): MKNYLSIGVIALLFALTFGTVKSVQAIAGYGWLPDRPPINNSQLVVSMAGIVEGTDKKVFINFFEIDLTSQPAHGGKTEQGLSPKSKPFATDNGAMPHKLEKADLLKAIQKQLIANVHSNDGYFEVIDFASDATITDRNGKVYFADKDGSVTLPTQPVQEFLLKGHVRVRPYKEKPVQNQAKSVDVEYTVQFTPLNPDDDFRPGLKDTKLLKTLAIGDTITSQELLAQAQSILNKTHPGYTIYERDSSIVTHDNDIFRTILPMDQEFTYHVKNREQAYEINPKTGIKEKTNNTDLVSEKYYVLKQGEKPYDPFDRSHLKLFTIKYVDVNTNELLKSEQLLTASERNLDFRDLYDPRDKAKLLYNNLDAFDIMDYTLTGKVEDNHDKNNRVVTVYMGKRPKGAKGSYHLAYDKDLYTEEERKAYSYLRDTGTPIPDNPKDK

[20] = target: Dual specificity protein phosphatase 3 (Homo sapiens, UniProt P51452); experiment: VHR phosphatase inhibition, dose response, selectivity assay for STEP inhibitor project, biochemical (AID 602374); type: functional; settings: read-out: IC50_Mean
Dual specificity protein phosphatase 3, sequence (P51452 whole entry): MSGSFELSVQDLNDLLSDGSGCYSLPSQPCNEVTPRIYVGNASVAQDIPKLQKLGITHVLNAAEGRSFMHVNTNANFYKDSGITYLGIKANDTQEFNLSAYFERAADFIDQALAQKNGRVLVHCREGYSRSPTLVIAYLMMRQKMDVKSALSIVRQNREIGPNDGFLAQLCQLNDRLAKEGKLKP

[21] = target: Tyrosine-protein phosphatase non-receptor type 5 (Homo sapiens, UniProt P54829); experiment: PTPN5 enzyme inhibition – biochemical, fluorescence intensity, uHTS hits, confirmation (AID 602372); type: functional; settings: read-out: IC50_Mean
Tyrosine-protein phosphatase non-receptor type 5, sequence (P54829 whole entry): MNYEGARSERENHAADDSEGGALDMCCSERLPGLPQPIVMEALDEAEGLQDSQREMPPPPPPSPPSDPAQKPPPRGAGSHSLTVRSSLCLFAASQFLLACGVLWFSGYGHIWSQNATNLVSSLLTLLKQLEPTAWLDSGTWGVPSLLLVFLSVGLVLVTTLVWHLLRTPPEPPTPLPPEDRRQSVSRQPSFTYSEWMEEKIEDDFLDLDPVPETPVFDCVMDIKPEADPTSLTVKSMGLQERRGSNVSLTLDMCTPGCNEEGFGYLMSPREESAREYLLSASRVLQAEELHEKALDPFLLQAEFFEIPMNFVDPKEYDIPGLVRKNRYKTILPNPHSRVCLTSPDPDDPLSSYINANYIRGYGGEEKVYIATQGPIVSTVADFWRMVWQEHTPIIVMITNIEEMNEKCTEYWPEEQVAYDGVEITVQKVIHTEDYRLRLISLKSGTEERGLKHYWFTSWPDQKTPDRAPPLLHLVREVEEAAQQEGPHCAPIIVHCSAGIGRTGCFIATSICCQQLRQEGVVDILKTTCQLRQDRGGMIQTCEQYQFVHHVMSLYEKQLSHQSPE

[22] = target: Potassium voltage-gated channel subfamily KQT member 2 (Rattus norvegicus, UniProt O88943); experiment: blockers of KCNQ2 channel current – cell-based, automated electrophysiology, set II, rat KCNQ2, dose response (AID 588637); type: functional
Potassium voltage-gated channel subfamily KQT member 2, sequence (O88943 whole entry): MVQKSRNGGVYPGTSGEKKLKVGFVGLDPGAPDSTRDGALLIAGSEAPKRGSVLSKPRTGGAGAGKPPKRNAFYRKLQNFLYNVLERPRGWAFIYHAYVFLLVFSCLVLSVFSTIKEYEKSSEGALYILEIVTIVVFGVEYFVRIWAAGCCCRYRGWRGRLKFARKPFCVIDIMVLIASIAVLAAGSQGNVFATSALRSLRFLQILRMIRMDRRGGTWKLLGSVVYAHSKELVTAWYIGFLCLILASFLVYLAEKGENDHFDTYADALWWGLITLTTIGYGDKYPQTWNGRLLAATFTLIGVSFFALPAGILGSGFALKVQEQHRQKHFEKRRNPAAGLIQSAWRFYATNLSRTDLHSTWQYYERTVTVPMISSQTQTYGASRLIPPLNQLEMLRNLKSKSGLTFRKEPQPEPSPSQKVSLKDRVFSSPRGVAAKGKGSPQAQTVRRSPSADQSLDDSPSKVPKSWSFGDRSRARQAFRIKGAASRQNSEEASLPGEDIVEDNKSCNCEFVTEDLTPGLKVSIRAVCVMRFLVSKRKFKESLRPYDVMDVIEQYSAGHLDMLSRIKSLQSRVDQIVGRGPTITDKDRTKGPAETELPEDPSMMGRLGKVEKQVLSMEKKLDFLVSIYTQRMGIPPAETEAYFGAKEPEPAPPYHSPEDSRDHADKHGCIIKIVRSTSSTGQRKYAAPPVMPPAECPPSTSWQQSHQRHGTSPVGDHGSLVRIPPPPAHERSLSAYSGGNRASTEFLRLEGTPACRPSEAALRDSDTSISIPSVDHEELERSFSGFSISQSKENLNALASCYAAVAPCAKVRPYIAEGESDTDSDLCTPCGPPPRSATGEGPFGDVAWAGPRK

[23] = target: Melanin-concentrating hormone receptor 1 (Homo sapiens, UniProt Q99705); experiment: Late-stage fluorescence-based counterscreen for antagonists of the G-protein coupled receptor 7 (GPR7): cell-based dose response assay to identify antagonists of the melanin-concentrating hormone receptor 1 (MCHR1) Set 6.; type: functional
Melanin-concentrating hormone receptor 1, sequence (Q99705 whole entry): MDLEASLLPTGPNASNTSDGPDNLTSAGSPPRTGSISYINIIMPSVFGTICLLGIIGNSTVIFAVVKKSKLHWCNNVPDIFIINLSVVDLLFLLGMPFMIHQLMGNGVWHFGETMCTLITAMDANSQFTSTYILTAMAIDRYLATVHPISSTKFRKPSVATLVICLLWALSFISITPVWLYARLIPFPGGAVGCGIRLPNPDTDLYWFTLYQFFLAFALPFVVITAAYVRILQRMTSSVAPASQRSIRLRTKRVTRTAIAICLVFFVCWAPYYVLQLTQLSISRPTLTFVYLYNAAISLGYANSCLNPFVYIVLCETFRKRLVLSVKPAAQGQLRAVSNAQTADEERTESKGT

[24] = target: T4, Neuropeptides B/W receptor type 1 (Homo sapiens, UniProt P48145); experiment: human NPBW1 receptor blockade, IC50 – cell-based, fluorescence, dose response, set 6, late-stage follow-up (AID 588583); type: functional
T4 sequence (P48145 whole entry): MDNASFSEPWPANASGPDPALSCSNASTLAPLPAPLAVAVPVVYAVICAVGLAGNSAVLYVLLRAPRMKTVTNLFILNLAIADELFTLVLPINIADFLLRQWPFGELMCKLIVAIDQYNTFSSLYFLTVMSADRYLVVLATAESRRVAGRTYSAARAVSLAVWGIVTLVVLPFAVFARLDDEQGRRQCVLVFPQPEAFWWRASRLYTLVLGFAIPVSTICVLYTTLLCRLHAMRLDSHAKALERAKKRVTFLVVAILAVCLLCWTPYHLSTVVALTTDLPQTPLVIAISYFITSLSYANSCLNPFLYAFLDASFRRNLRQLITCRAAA

Melanocortin receptor 4 = Melanocortin receptor 4 (Homo sapiens, UniProt P32245); type: functional, cell-based;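 further: Cell-based assay with luminescence read-out, confirmatory dose-response testing for agonist activity of biased ligands at MC4R; human U2OS cells with tagged receptor and beta-arrestin; potency of agonists that increase receptor coupling to beta-arrestin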
[25] = target: Mitochondrial peptide methionine sulfoxide reductase (Bos taurus, UniProt P54149); type: functional;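 further: absorbance read-out, biochemical high-throughput dose-response screen for MsrA inhibitors, confirmatory; recombinant bovine MsrA coupled to E. coli TrxB with NADPH and selenocystamine; potency is for inhibitors of MsrA activity on DMSO substrate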
[26] = HIV-1 Vif–A3G interaction blockers – biochemical, TR-FRET, GST-Vif 1-94, biotin-A3G peptide, dose response retest, primary screen (AID 1117319); type: functional;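 further: TR-FRET signal of purified GST-Vif binding a biotinylated A3G peptide; inhibitors lower the FRET signal by blocking Vif and A3G binding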
Aurora kinase B = Aurora kinase B (Homo sapiens, UniProt Q96GD4); type: functional
Aurora kinase B, sequence (Q96GD4 whole entry): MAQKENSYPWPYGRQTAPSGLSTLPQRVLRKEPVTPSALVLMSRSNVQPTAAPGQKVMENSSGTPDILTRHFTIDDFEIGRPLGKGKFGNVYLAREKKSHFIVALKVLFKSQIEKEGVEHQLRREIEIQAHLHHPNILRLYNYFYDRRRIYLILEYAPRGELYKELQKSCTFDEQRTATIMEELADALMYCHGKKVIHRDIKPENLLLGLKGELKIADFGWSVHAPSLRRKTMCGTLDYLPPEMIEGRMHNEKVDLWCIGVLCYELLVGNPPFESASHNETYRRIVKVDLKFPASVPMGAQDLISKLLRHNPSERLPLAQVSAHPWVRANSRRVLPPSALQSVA

Benomyl/methotrexate resistance protein, sequence (P28873 whole entry): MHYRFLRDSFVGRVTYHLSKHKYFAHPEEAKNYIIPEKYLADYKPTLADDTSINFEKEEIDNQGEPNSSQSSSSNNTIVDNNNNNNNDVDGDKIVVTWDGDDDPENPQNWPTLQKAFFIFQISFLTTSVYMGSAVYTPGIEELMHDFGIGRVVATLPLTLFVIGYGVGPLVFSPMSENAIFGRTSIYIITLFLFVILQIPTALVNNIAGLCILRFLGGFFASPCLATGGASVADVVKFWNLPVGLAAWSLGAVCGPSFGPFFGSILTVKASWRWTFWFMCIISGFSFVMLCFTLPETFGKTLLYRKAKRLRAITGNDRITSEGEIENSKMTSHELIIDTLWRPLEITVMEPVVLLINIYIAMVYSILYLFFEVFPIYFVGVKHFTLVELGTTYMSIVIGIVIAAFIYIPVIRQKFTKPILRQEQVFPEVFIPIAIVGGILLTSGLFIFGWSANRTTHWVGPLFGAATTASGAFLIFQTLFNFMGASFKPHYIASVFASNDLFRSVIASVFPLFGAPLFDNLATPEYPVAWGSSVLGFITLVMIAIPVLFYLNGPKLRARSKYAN

In the case of `Cc1cccc(C)c1-n1c(SCC(=O)N2CC(=O)Nc3ccccc32)nc2ccccc2c1=O`, the EC50 [1] is reported as 0.01 µM (active).

In the case of `CCOC(=O)C1CCCN(C(=O)c2cn(C)c(=O)c3cc(OC)c(OC)cc23)C1` (centres undefined), the IC50 [2] is reported as 14.1 µM (inactive).

With `COc1ccc(N(CC(=O)NCCc2cccc(C)c2)S(=O)(=O)c2c(C)noc2C)cc1` the IC50 (CHO-K1) was > 66.2 µM (inactive), the IC50 (Orexin receptor type 2 [3]) was > 88.8 µM (inactive) and the IC50 (Orexin receptor type 2 [4]) was 2.27 µM (active). For the same molecule, the IC50 [5] was 7.14 µM (active), the IC50 [6] was > 49.8 µM (inactive) and the IC50 [7] was 0.653 µM (active).

With `CN1CCN(C(c2ccc(C(F)(F)F)cc2)c2ccc3cccnc3c2O)CC1` (centres undefined) the EC50 [8] was > 180 µM (inactive), the EC50 [9] was 10.3 µM (active) and the EC50 [10] was > 150 µM (inconclusive). The EC50 [11] was 8.06 µM (active), the EC50 [12] was 7.46 µM (active) and the EC50 [13] was 9.1 µM (active). For the same molecule, the AC50 [14] was 6.73 µM (active), the EC50 [15] was 0.676 µM (active) and the EC50 [16] was 14 µM (active). The EC50 [17] was 2.92 µM (active), the EC50 (Streptococcus) was 2.91 µM (active) and the AC50 (INS1) was 2.43 µM (active). The EC50 [18] was 1.64 µM (active).

For `SC1=NC(C23CC4CC(CC(C4)C2)C3)=CC(c2ccc3c(c2)OCO3)N1` (centres undefined), the IC50 [19] was 15 µM (active), the EC50 [12] was > 60 µM (not active) and the EC50 (Streptokinase A) was 22.5 µM (active). The IC50 [20] was 3.52 µM (active), the EC50 [17] was 13.6 µM (active) and the EC50 (Streptococcus) was > 150 µM (not active). For the same molecule, the IC50 [21] was 56.8 µM (inactive) and the EC50 [18] was 2.44 µM (active).

For `O=C(COc1ccc(Cl)cc1Cl)N(c1ccccn1)C1CCCCC1`, the IC50 [22] was 0.0699 µM (active).

For `C=CCNC(=O)CCC(=O)NNc1nc2ccccc2c2nc(-c3ccccc3)nn12`, the IC50 (CHO-K1) was > 66.2 µM (inactive), the IC50 (Orexin receptor type 2 [3]) was > 88.8 µM (inactive) and the IC50 (Orexin receptor type 2 [4]) was > 50 µM (inactive). The IC50 [5] was 6.87 µM (active), the IC50 [6] was > 49.7 µM (inactive) and the IC50 [7] was 1.2 µM (active).

For `N#CC(c1c(Cl)cnn(Cc2cccc3ccccc23)c1=O)c1csc2ccccc12` (centres undefined), the IC50 [23] was > 20 µM (inactive) and the IC50 [24] was > 20 µM (inactive).

In the case of `CC(C#N)c1c(Cl)cnn(Cc2cccc3ccccc23)c1=O` (centres undefined), the IC50 [23] is reported as 3.1 µM (active) and the IC50 [24] is reported as 3.1 µM (active).

For `CC(=O)Nc1cc(-c2ccc(CO)cc2)cn2c(-c3cccc(C(F)(F)F)c3)cnc12`, the EC50 (Melanocortin receptor 4) was > 89.2 µM (inactive).

In the case of `NC(=S)N/N=C/c1ccc(-c2cccc([N+](=O)[O-])c2)o1`, the IC50 [25] is reported as 155 µM (inactive) and the IC50 [26] is reported as > 100 µM (active).

For `O=C(O)c1ccccc1Nc1ccnc(Nc2ccc(O)cc2)n1`, the Ki (Aurora kinase B) was 0.002 µM (active).
